Laboratory results as given in publication PMC11149917, “Translational and Therapeutic Evaluation of RAS-GTP Inhibition by RMC-6236 in RAS-Driven Cancers” (Cancer Discovery, 2024).
Where “and” joins values, the source holds several entries; their conditions need not be identical. Equal entries are not always repeated. Where two headings read alike, the source gives them in different places.

Key:
[1] = target: KRAS^WT (Homo sapiens, UniProt P01116+P62937); assay: RAS-binding affinity (KD2) of compound-bound CypA; details: average of 8 replicate experiments, read-out: affinity of the RMC-6236:CypA binary complex (KD2)
[2] = target: wild-type HRAS (Homo sapiens, UniProt P01112+P62937); assay: RAS-RAF TR-FRET; type: biochemical; details: 25 µmol/L CypA, read-out: EC50, disruption of RAF-RBD binding
[3] = tested on: LU99-Luc (KRAS^G12C/WT, NSCLC) intracranial xenograft; assay: Intracranial tumor model (bioluminescence); type: in vivo, mouse; details: 25 mg/kg daily oral, 21 days
Excerpt: (§1) LU99 cells (JCRB0080) were stably modified with lentivirus-based pHBLV-CMV-MCS-EF1-fLuc-T2A-puro vector to generate luciferase-expressing LU99-Luc cells. NCI-H1373 cells (ATCC CRL-5866) were stably modified with lentivirus-based pHBLV-CMV-MCS-EF1-fluc-T2A-PURO vector to generate luciferase-expressing NCI-H1373-Luc cells. The eCT26 Kras^G12C^/G12CAbcb1^−^/^− (clone I20) and eCT26 Kras^G12D^/G12DAbcb1^−^/^− (clone I12) cell lines were engineered from the murine CT26 homozygous Kras^G12D tumor cell line (ATCC CRL-2638). All Kras^G12D alleles were replaced with Kras^G12C using CRISPR technology at Synthego. Additionally, the P-glycoprotein drug transporter, Abcb1a and Abcb1b, were knocked out using CRISPR guide sequences […] and […], respectively. The homozygous G12C mutation and the Abcb1 knockout were confirmed by Sanger sequencing in the clone selected and were used for in vivo experiments.
(§2) NCI-H1373-Luc cells (3 × 10^5) were prepared in 3 µL sterile PBS with 20% Matrigel. Each mouse was anesthetized by intraperitoneal (ip) injection of sterile avertin (250 mg/kg) and positioned on the stereotaxic unit. Cells were intracranially injected over 2 minutes at the site 2 mm lateral (right), 0.5 mm anterior, and 3 mm ventral with respect to the bregma. […] The bioluminescence and animal weights were measured and recorded once and twice per week, respectively. […]

[4] = tested on: NCI-H1373-Luc intracranial xenograft; assay: Intracranial tumor model (bioluminescence); type: in vivo, mouse; details: 25 mg/kg daily oral, 28 days
Excerpt: as §1, §2

[5] = In vitro whole blood-plasma partitioning fitting; type: in vitro ADME, mouse; details: for Blood-plasma ratio: Mouse
Method: (§3) Tumor PK and PD were added to the model by incorporating blood-plasma partitioning, plasma protein binding, and tumor partitioning and PD parameters.
(§4) B:P=B:P0-(Imax*CBIC50+CB)
(§5) Where B:P is the blood:plasma partitioning ratio at a specific blood concentration, B:P0 is the fitted blood:plasma partitioning ratio at zero concentration, Imax is the maximal decrease in blood:plasma partitioning, and IC50 is the half-maximal concentration in blood to achieve the lowest blood:plasma partitioning ratio.

[6] = In vitro whole blood-plasma partitioning fitting; type: in vitro ADME, human; details: for Blood-plasma ratio: Human
Method: as §3, §4, §5

wild-type HRAS, sequence (P01112 1-169): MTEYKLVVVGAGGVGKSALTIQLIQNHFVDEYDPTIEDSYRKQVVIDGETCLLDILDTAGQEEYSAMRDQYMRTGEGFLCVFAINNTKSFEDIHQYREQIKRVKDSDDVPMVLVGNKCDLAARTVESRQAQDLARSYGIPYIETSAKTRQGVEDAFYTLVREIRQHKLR
wild-type HRAS, sequence (P62937 whole entry): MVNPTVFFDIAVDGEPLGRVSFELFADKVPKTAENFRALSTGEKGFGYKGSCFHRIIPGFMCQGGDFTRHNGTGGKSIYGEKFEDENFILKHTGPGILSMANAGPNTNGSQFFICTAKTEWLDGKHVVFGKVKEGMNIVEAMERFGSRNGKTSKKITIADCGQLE
KRAS^WT, sequence (P01116 1-169 isoform P01116-2): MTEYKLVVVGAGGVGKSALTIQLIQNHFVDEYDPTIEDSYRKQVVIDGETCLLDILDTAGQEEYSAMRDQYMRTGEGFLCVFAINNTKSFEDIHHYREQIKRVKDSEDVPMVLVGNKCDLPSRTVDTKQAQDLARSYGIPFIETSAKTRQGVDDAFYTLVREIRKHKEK
KRAS^WT, sequence (P62937 whole entry): as the sequence (P62937 whole entry) above

Which results are given for CCn1c(-c2cc(N3CCN(C)CC3)cnc2[C@H](C)OC)c2c3cc(ccc31)-c1csc(n1)C[C@H](NC(=O)[C@H]1C[C@@H]1C)C(=O)N1CCC[C@H](N1)C(=O)OCC(C)(C)C2 [RMC-6236]?
Kd [1]: 154 nM; EC50 [2]: 82 nM; tumor response by bioluminescent signal [3]: tumor regressions; tumor response by bioluminescent signal [4]: tumor regressions; E0 ([5]; In vitro Mouse BP Fitting): 5.524; Imax ([5]; In vitro Mouse BP Fitting): 5.199; Blood-plasma ratio ([5]; concentration 0.05 µM): 4.76 and 4.92 and 4.44; Blood-plasma ratio ([5]; concentration 0.1 µM): 7.33 and 6.64 and 6.23; Blood-plasma ratio ([5]; concentration 0.5 µM): 3.87 and 3.54 and 3.48; Blood-plasma ratio ([5]; concentration 1 µM): 4.22 and 4.49 and 4.73; Blood-plasma ratio ([5]; concentration 10 µM): 1.01 and 0.99 and 1.25; blood plasma ratio ([5]; whole blood, Mouse Blood-Plasma Fitting, %CV 7.43, read-out: E0 (blood:plasma partitioning ratio at zero concentration)): 5.52; Blood-plasma ratio ([6]; concentration 0.05 µM): 4.86 and 5.48 and 5.49; Blood-plasma ratio ([6]; concentration 0.1 µM): 5.31 and 5.73 and 5.41; Blood-plasma ratio ([6]; concentration 0.5 µM): 3.7 and 4.38 and 4.15; Blood-plasma ratio ([6]; concentration 1 µM): 2.96 and 3.18 and 2.73; Blood-plasma ratio ([6]; concentration 10 µM): 0.76 and 1.07; E0 ([6]; In vitro Human BP Fitting): 5.712; Imax ([6]; In vitro Human BP Fitting): 5.23; blood plasma ratio ([6]; whole blood, Human Blood-Plasma Fitting, %CV 3.36, read-out: E0 (blood:plasma partitioning ratio at zero concentration)): 5.71
